Experiment [1] deals with D type HBV in primary human hepatocytes (PHH). In words: HBV DNA in culture supernatants of HBV-infected primary human hepatocytes (qPCR), MacSynergy. The class given is cell-based. The conditions noted are these: COMPOUND 25 0.00 nM. On the procedure: The mouse liver perfusion was applied to isolate PHHs. The isolated hepatocytes were further purified by Percoll. The cells were resuspended with culture media and seeded into the 96-well plates (6×10^4 cell/well) or 48-well plates (1.2×10^5 cell/well). The PHHs were infected with a D type HBV one day post seeding (day 1).
On day 2, the test compounds were diluted and added into the cell culture plates. The culture media containing the compounds were refreshed every other day. The cell culture supernatants were collected on day 8 for the HBV DNA and antigen determinations.
The compounds were tested at 7 concentrations, 3-fold dilution, in triplicate.
Two compounds were tested at 5×5 matrix, in triplicate plates.
DNA in the culture supernatants harvested on days 8 were isolated with QIAamp 96 DNA Blood Kit (Qiagen-51161). For each sample, 100 μl of the culture supernatants was used to extract DNA. The DNA was eluted with 100 μl, 150 μl or 180 μl of AE. HBV DNA in the culture supernatants was quantified by qPCR. The combination effect was analyzed by the MacSynergy software. The primers are described below.

The subject of experiment [2] is HBV rcDNA in AML12-HBV10 cells. In words: Inhibition of rcDNA in AML12-HBV10 cells (bDNA assay), checkerboard, MacSynergy II. It counts as cell-based, HBV (mouse hepatocyte cell line). The conditions noted are these: Hepatitis B virus, AML12HBV10, in Mus musculus, expected from additive interaction; Compound 3 0.3125 μM; ETV μM in c0 of the row. How it is done: The two inhibitors were tested both singly as well as in combinations in a checkerboard fashion such that each concentration of inhibitor A was combined with each concentration of inhibitor B to determine their combination effects on inhibition of rcDNA production.

The test system of a further experiment is hepatitis B virus (HBV). In words: Serum HBsAg in humanized liver chimeric mouse model of chronic HBV infection (GS HBsAg EIA 3.0). It counts as in vivo. Conditions: Compound 3 oral 100 mg/kg twice daily, SIRNA-NP intravenous 3 mg/kg every 2 weeks, ETV oral 1.2 μg/kg daily, pegIFN α-2a subcutaneous 30 μg/kg twice a week. On the procedure:
This work was conducted in a well-established humanized liver chimeric mouse model of chronic hepatitis B virus (HBV) infection (Tsuge et al., Hepatology, 42(5), 1046-54 (2005)). A persistent level of HBV infection was established in the animals prior to the treatment phase which started at Day 0.
The anti-HBV effects were assessed based on serum HBsAg levels using the GS HBsAg EIA 3.0 enzyme linked immunosorbent assay kit from Bio-Rad Laboratories as per manufacturer instructions; and serum HBV DNA levels measured from total extracted DNA using a quantitative PCR assay (primer/probe sequences from Tanaka et al., Journal of Medical Virology, 72, 223-229 (2004)).

As a reminder, the inhibition is the share of the control response that was lost under treatment. As to `CC[C@@H](C)NS(=O)(=O)c1ccc(F)c(C(=O)Nc2ccc(F)c(F)c2)c1` [Compound 3], the “AVERAGE % INHIBITION, HBV DNA” value in experiment [1] (COMPOUND 3 61.73 nM) was −28.13%; in experiment [1] (COMPOUND 3 185.19 nM) it was −25.93%; in experiment [1] (COMPOUND 3 555.56 nM) it was −3.32%; in experiment [1] (COMPOUND 3 1666.67 nM) it was 25.94%; in experiment [1] (COMPOUND 3 5000.00 nM), 74.78%. Besides, the inhibition at 0.3125 µM in experiment [2] is 71%.

`C=C1[C@H](CO)[C@@H](O)C[C@@H]1n1cnc2c(=O)[nH]c(N)nc21` [ETV, Entecavir]: the entries for the “Serum HBsAg (± SEM)” value in the experiment with hepatitis B virus (HBV) (Day 0 (start of treatment)) and with hepatitis B virus (HBV) (Day 21) were 2649 ± 282 IU/mL and 2975 ± 629 IU/mL, respectively.
